The values below come from patent publication US20240100058A1, “METHOD FOR SELECTING, ASSESSING, OR PRODUCING SODIUM LAURYL SULFATE AS RAW MATERIAL FOR PHARMACEUTICAL FORMULATION, OR FORMULATION OR THE LIKE CONTAINING SAME” (Chugai Seiyaku Kabushiki Kaisha, priority 2019, published 2024).

Where only a bound is given, the exact number is not on record here.

Format in all cases: physicochemical
Series [1] in a line: X-ray powder diffraction of sodium lauryl sulfate lots after storage under accelerated condition. The settings on record: for storage period in which XRPD peaks of sodium lauryl sulfate-dodecanol complex were observed: 70° C., relative humidity about 10% (saturated LiCl), open system, stored up to day 11; for storage period at which new XRPD peaks (2θ around 4.9° and 7.4°) were first detected: airtight system, up to 4 days. As to the method: Samples (appropriate amount) of different lots, Lot 1 (production date: 2015.12.22) and Lot 2 (production date: 2017.3.10)) of sodium lauryl sulfate, which were obtained from a single manufacturer and produced on different days, were placed in glass vials and stored in an airtight system under condition 1A (temperature 60° C.) and condition 1B (temperature 70° C.). Samples before storage, stored for 3 days and 4 day were subjected to X-ray powder diffraction (XRPD). Measurement was performed in the conditions shown below.
X-ray powder diffraction method: • Measuring device: X′Pert-Pro MPD (manufactured by PANalytical) • Anti-cathode: Cu • Tube voltage: 45 kV • Tube current: 40 mA • Step width: 0.02 • Scan axis: 20 • Sampling time per step: 43 seconds • Scan range: 3 to 40°
(§1) A sample of sodium lauryl sulfate (about 250 mg) was placed in a glass vial and stored in an open system at a temperature of 70° C. and a relative humidity of about 10% (a saturated aqueous solution of LiCl). Samples of before storage, stored for a single day, 2 days, 3 days, 4 days, 7 days and 11 days were subjected to X-ray powder diffraction performed in the conditions of Example 1.

Series [2] in a line: Sulfate ion quantification by ion chromatography in sodium lauryl sulfate after accelerated storage. The settings on record: for sulfate ion concentration in sample solution: after 4-day storage at 70° C., relative humidity about 10%, about 5 mg sample in 50 mL water. As to the method: as §1
Sulfate ions generated by decomposition of sodium lauryl sulfate in the samples of Lot 1 and Lot 2 after 4-day storage were quantified by ion chromatography shown below.
Sodium lauryl sulfate (about 5 mg) was weighed and water was added up to 50 mL. The solution was irradiated with ultrasonic wave for 15 minutes and filtered by a membrane filter (DISMIC-25HP PTFE 0.45 μm HYDROPHILIC, manufactured by ADVANTEC). The filtrate was passed through a solid-phase extraction cartridge (Dionex OnGuard II RP, manufactured by ThermoFisher Scientific) washed and the eluate was used as a sample solution. Separately, solutions having a sulfate ion concentration of 1 mg/L, 2 mg/L, 3 mg/L, 4 mg/L and 5 mg/L were prepared by use of the sulfate ion standard solution (1 g/L, manufactured by Wako Pure Chemical Industries Ltd.) for ion chromatography and used as the standard solutions. […]
The concentration of sulfate ion in a sample solution was calculated based on the calibration curve prepared by using the standard solutions.
Sodium lauryl sulfate is usually stored at room temperature; however, there are possible cases, e.g., transportation, where it is stored at a higher temperature than room temperature. […] After storage, sulfate ions generated by decomposition of sodium lauryl sulfate in the sample were quantified by ion chromatography shown in Example 4.

The nature of series [3]: X-ray powder diffraction of sodium lauryl sulfate lots after storage under accelerated condition. The conditions noted are these: for storage period at which new XRPD peaks were first detected: open system, sulfate.
Where [4] appears, read: condition 2A: 70° C., relative humidity about 79% (saturated NaCl).
The mark [5] stands for this setting: condition 2B: 70° C., relative humidity about 10% (saturated LiCl), up to 6 days.

For `CCCCCCCCCCCCOS(=O)(=O)[O-].[Na+]` [Lot 1, sodium lauryl sulfate], in series [1], the “storage period in which XRPD peaks of sodium lauryl sulfate-dodecanol complex were observed” value was not below 3 days. The “storage period at which new XRPD peaks (2θ around 4.9° and 7.4°) were first detected” value worked out at 4 days in series [1] (condition 1A: 60° C.) and 3 days in series [1] (condition 1B: 70° C.). Moreover, in series [2], the “sulfate ion concentration in sample solution” value came to 24.1 mg/L. For the same compound, the “storage period at which new XRPD peaks were first detected” value was 1 days in series [3] (setting [4]) and 3 days in series [3] (setting [5]). In addition, the “physical state of sample after storage” value in series [3] (condition 2A: 70° C., relative humidity about 79%, 2-days and 3-days storage) was “changed to a liquid state”.

As for `CCCCCCCCCCCCOS(=O)(=O)[O-].[Na+]` [Lot 2, sodium lauryl sulfate], the “storage period in which XRPD peaks of sodium lauryl sulfate-dodecanol complex were observed” value in series [1] is given as more than 11 days. Moreover, the “storage period at which new XRPD peaks (2θ around 4.9° and 7.4°) were first detected” value in series [1] (condition 1A: 60° C.) and in series [1] (condition 1B: 70° C.) was more than 4 days throughout. Besides, in series [2], the “sulfate ion concentration in sample solution” value is listed as not above 1 mg/L. The “storage period at which new XRPD peaks were first detected” value in series [3] (setting [4]) is 3 days; in series [3] (setting [5]), more than 6 days.

Consider `CCCCCCCCCCCCOS(=O)(=O)[O-].[Na+]` [Lot 5, sodium lauryl sulfate], for which the “sulfate ion concentration detected by ion chromatography” value in series [2] (prior storage under Conditions 1-17 of Table 1 (30-40° C. 45 days plus up to 48 hours at up to 60° C.), then 70° C., about 10% RH, 4 days) is not above 1 mg/L.
